Earlier results in patent US20160168384A1, “PORPHYRINOID COMPONENTS, METHOD AND APPARATUS FOR WATER PHOTODISINFECTION” (NIMARTECH LIMITED, priority 2013, published 2016).

Tested on: faecal coliforms
Conditions: wastewater; micromolar porphyrin; visible light or sunlight, about 4 hours

## C[n+]1ccc(-c2c3nc(c(-c4cc[n+](C)cc4)c4ccc([nH]4)c(-c4cc[n+](C)cc4)c4nc(c(-c5cc[n+](C)cc5)c5ccc2[nH]5)C=C4)C=C3)cc1 [Sample C1, meso-tetra(N,N,N,N-methyl-pyridyl)porphine]
  decrease of coliform counts: at least 5 logs
